Laboratory results from PubChem BioAssay (NCI).
“And” between values parts separate entries of the source, which are not always exact repeats. Identical values can stand only once.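 Each compound was tested at five concentrations against cells in 96-well plates for 48 hours. The concentration for 50% growth inhibition is given as GI50. TGI is the concentration that stops growth completely.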

Columns and labels:
Experiment in all cases: growth of human tumour cells (NCI), 48 h
M14 melanoma = test system: M14 melanoma
HOP-62 NSCLC = test system: HOP-62 NSCLC
NCI-H522 lung = test system: NCI-H522 lung
IGROV1 ovarian = test system: IGROV1 ovarian
HT29 colon = test system: HT29 colon
COLO 205 colon = test system: COLO 205 colon
RPMI-8226 leukemia = test system: RPMI-8226 leukemia
TK-10 renal = test system: TK-10 renal
RXF 393 renal = test system: RXF 393 renal
T-47D breast = test system: T-47D breast

Row | SMILES | GI50 (M14 melanoma) | TGI (M14 melanoma) | GI50 (HOP-62 NSCLC) | TGI (HOP-62 NSCLC) | GI50 (NCI-H522 lung) | TGI (NCI-H522 lung) | GI50 (IGROV1 ovarian) | TGI (IGROV1 ovarian) | GI50 (HT29 colon) | TGI (HT29 colon) | GI50 (COLO 205 colon) | TGI (COLO 205 colon) | GI50 (RPMI-8226 leukemia) | GI50 (TK-10 renal) | TGI (TK-10 renal) | TGI (RXF 393 renal) | TGI (RPMI-8226 leukemia) | TGI (T-47D breast) | GI50 (RXF 393 renal) | GI50 (T-47D breast)
1 | COc1cccc(-c2cc(=O)c3cc(N4CCOCC4)ccc3[nH]2)c1 | 0.0365 µM and 0.0749 µM | > 100 µM | 0.0791 µM | > 100 µM | 0.0209 µM | 0.0395 µM and 0.0852 µM | 0.145 µM | > 100 µM | 0.0359 µM and 0.029 µM | 0.883 µM and 0.125 µM | 0.0353 µM | 0.0463 µM and 0.234 µM | 0.135 µM | 4.84 µM | > 100 µM | – | – | – | – | –
2 | CC(C)(C)C(=O)Nc1cccc2oc(-c3ccccc3)cc12 | – | > 100 µM | – | > 100 µM | – | – | – | > 100 µM | – | > 100 µM | – | > 100 µM | – | – | – | > 100 µM | > 100 µM | – | – | –
3 | O=C(O)c1ccc(C(O)(c2ccccc2)c2ccccc2)cc1 | – | > 100 µM | – | > 100 µM | – | > 100 µM | – | > 100 µM | – | – | – | > 100 µM | – | – | > 100 µM | – | > 100 µM | > 100 µM | – | –
4 | CN(C)CCC(CCN(C)C)=NO | – | > 100 µM | – | > 100 µM | – | > 100 µM | – | > 100 µM | – | > 100 µM | – | > 100 µM | – | – | > 100 µM | > 100 µM | > 100 µM | – | – | –
5 | C#CC(=O)Nc1cccc2c1cc(C)n2-c1nc2c(c(NCc3ccccc3)n1)CCCC2 | 0.303 µM | 1.13 µM | – | – | 0.0174 µM | 0.0372 µM | – | – | 0.0543 µM | 0.121 µM | 0.267 µM | 0.803 µM | – | 1.66 µM | 3.09 µM | 0.311 µM | – | 3.33 µM | 0.152 µM | 0.697 µM
6 | CCCCCCn1c(SC)nc(COC(=O)NC)c1COC(=O)NC | – | 38.8 µM | – | 37.1 µM | – | 23.5 µM | – | 30.5 µM | – | 36.2 µM | – | 29.2 µM | – | – | 31.2 µM | – | 67.7 µM | 35 µM | – | –
7 | CCOc1ccc(/C=C/c2cc(OC)c(OC)c(OC)c2)cc1 | – | 5.29 µM | – | 35.9 µM | – | 2.21 µM | – | > 93.8 µM | – | > 100 µM | – | 2.5 µM | – | – | > 100 µM | 5 µM | > 100 µM | – | 0.448 µM | –
8 | N#CC(C#N)=C1CCOc2ccc(F)cc21 | 19.5 µM | 45.9 µM | 13.2 µM | 25.9 µM | > 100 µM | > 100 µM | 17.4 µM | 57 µM | 64.2 µM | > 100 µM | 21.7 µM | 67.6 µM | 17.4 µM | 14.1 µM | 33.3 µM | 33.5 µM | 38.4 µM | – | 17.4 µM | –
9 | COc1cc(-c2nc3sc(C)cn3c2/C=C2\C(=O)Nc3ccccc32)c(Br)c(OC)c1OC | 29.1 µM | > 100 µM | 26.5 µM | 88.7 µM | 22.2 µM | 57.3 µM | 23.4 µM | > 100 µM | 26.9 µM | 55.5 µM | 25.7 µM | 66.2 µM | – | 32.9 µM | 77.5 µM | – | – | > 100 µM | – | 47.7 µM
10 | CC(C)(C)c1cc(CCCCCCCC2(CCCCCCCc3cc(C(C)(C)C)cc(C(C)(C)C)c3)OC(COCCOCCCCCC#N)C(COCCOCCCCCC#N)O2)cc(C(C)(C)C)c1 (centres undefined) | – | > 100 µM | – | > 100 µM | – | > 100 µM | – | > 100 µM | – | > 100 µM | – | > 100 µM | – | – | > 100 µM | > 100 µM | – | – | – | –
11 | COc1cc(CNCCN2C(=O)c3ccc4c5c(ccc(c35)C2=O)C(=O)N(CCNCc2cc(OC)c(OC)c(OC)c2)C4=O)cc(OC)c1OC | 0.717 µM | 1.4 µM | 0.28 µM | 0.999 µM | 0.123 µM | 0.496 µM | 0.296 µM | 1.89 µM | – | – | 0.177 µM | 0.673 µM | – | 0.78 µM | 1.51 µM | 0.902 µM | – | 0.718 µM | 0.251 µM | 0.189 µM
12 | NS(=O)(=O)c1ccc(NC(=O)Cc2nc3ccccc3s2)cc1 | – | 29.4 µM | – | 50.9 µM | – | 33.2 µM | – | 29.9 µM | – | 35.4 µM | – | 34 µM | – | – | 44.9 µM | 32.6 µM | 74.1 µM | – | – | –
13 | CCCCNS(=O)(=O)c1n[nH]c(=O)[nH]c1=O | – | > 100 µM | – | > 100 µM | – | > 100 µM | – | > 100 µM | – | > 100 µM | – | > 100 µM | – | – | – | > 100 µM | > 100 µM | > 100 µM | – | –
14 | O=C(OCCCl)C1OC(n2cc(F)c(=O)[nH]c2=O)CC1O (centres undefined) | – | > 100 µM | – | > 100 µM | – | > 100 µM | – | > 100 µM | – | > 100 µM | – | > 100 µM | – | – | > 100 µM | > 100 µM | > 100 µM | – | – | –
15 | CC1=NN(C(=O)Nc2ccc(Cl)cc2)C(=O)C2CCC(=O)N12 (centres undefined) | – | > 100 µM | – | > 100 µM | – | – | – | > 100 µM | – | – | – | > 100 µM | – | – | > 100 µM | > 100 µM | > 100 µM | – | – | –
16 | Cc1[nH]c2ccccc2c1CC/C(=N\Nc1ccccc1)c1ccccc1 | – | > 100 µM | – | > 100 µM | – | – | – | > 100 µM | – | > 100 µM | – | – | – | – | > 100 µM | > 100 µM | > 100 µM | – | – | –
17 | C[C@@H](NS(=O)(=O)c1ccc(NC(=O)c2ccccc2)cc1)C(=O)O | – | > 100 µM | – | – | – | > 100 µM | – | > 100 µM | – | > 100 µM | – | > 100 µM | – | – | > 100 µM | > 100 µM | > 100 µM | – | – | –
18 | O=C1C(=C([O-])c2ccccc2)C(=O)c2ccccc21.O=C1C(=C([O-])c2ccccc2)C(=O)c2ccccc21.[Mn+2] | 70.4 µM | > 100 µM | – | – | – | – | > 100 µM | > 100 µM | 43.2 µM | > 100 µM | – | – | > 100 µM | > 100 µM | > 100 µM | > 100 µM | > 100 µM | – | 89.6 µM | –
19 | Cc1ccc(NC(=O)CC/C(CC(=O)C(C)(C)C)=N\NC(=O)C[n+]2ccccc2)cc1C | – | > 100 µM | – | > 100 µM | – | > 100 µM | – | > 100 µM | – | > 100 µM | – | > 100 µM | – | – | > 100 µM | > 100 µM | > 100 µM | – | – | –
20 | CC1(C)N=C(N)N=C(N)N1c1ccc(OCCCNC(=O)Nc2cccc(S(=O)(=O)F)c2)c(Cl)c1 | 3.26 µM | > 100 µM | 6.04 µM | > 100 µM | – | – | 0.448 µM | > 100 µM | – | – | 12.5 µM | > 100 µM | 41.4 µM | – | – | > 100 µM | > 100 µM | > 100 µM | 22.2 µM | 35.1 µM
